Experimental data as given in BindingDB's records for doi:10.1016/s0960-894x(00)00664-8 (Kyoto University, 2001).
pEC50: −log10 of the molar value. Where a SMILES comes first, the peptide text is derived from it. Bridges are numbered along the chain shown (N, C = ends). [ ]: non-standard residue; d: D form. Gly(2-naphthyl) = N[C@H](C(=O)O)c1ccc2ccccc2c1; Cit = NC(=O)NCCC[C@H](N)C(=O)O

Test: Effective concentration for antagonistic activity by inhibition of T-tropic strain of HIV-1 through its specific binding to a chemokine receptor

pEC50: 9.74
Compound: NCCCC[C@@H]1NC(=O)[C@H](CCCN=C(N)N)NC(=O)[C@H](Cc2ccc(O)cc2)NC(=O)[C@@H](NC(=O)[C@@H](NC(=O)[C@H](CCCN=C(N)N)NC(=O)[C@@H](N)CCCN=C(N)N)c2ccc3ccccc3c2)CSSC[C@@H](C(=O)N[C@@H](CCCN=C(N)N)C(=O)O)NC(=O)[C@H](CCCNC(N)=O)NC(=O)[C@H](CCCN=C(N)N)NC(=O)[C@H](Cc2ccc(O)cc2)NC(=O)[C@@H]2CCCN2C(=O)[C@@H](CCCCN)NC1=O [Compound T140] (H-RR[Gly(2-naphthyl)]CYRK[dK]PYR[Cit]CR-OH; disulfide 4-13)
